According to PMC8932751 (Clinical and Translational Science, 2021):

How the values were obtained:
[1] = investigation cohort, 70 patients
[2] = atorvastatin and its metabolites; cited from earlier work

## CC(C)c1c(C(=O)Nc2ccccc2)c(-c2ccccc2)c(-c2ccc(F)cc2)n1CC[C@@H](O)C[C@@H](O)CC(=O)O [atorvastatin]
Exponential residual error
  σ (SD), residual variability: 0.085
Final PopPK model
  ωQ (SD), between-subject variability: 0.715
  ωVc (SD), between-subject variability: 1.18
  ωVp (SD), between-subject variability: 0.508
[1]
  patients with myalgia at any time during follow-up: 8.6%
[2]
  fraction of the oral dose excreted in urine: less than 1%
